Experimental data as given in ChEMBL document CHEMBL1201862, “PubChem BioAssay data set” (2004).
Activity calls are given as the source filed them. Cut-off read from the data, not from the text of the source, for most assays here: actives have a measured EC50 and inactives only a lower limit.

Columns and labels:
[1] = Luminescence Cell-Based Dose Retest to Confirm Inhibitors of Cancer Stem Cells. [Related pubchem assays (depositor defined):AID2717, AID2721]; type: functional; conditions: Homo sapiens
[2] = target: T1, Heat shock 70 kDa protein 1A (Homo sapiens, UniProt P0DMV8); experiment: small-molecule inhibition of Hsp70 – biochemical, TR-FRET (AID 786)
[3] = target: T1, Heat shock 70 kDa protein 1A; experiment: small molecules displacing fluorescent ligand from Hsp70 – biochemical, fluorescence polarization, primary screen (AID 583)
[4] = target: Serine/threonine-protein phosphatase PP1-alpha catalytic subunit (Homo sapiens, UniProt P62136); experiment: inhibition of protein phosphatase 1 activity – biochemical, fluorescence, dose response (AID 2403);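 note: phosphatase turnover of OMFP into fluorescent 3-O-methylfluorescein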
[5] = target: Serine/threonine-protein phosphatase (Homo sapiens, UniProt Q9BPW0); experiment: Counterscreen for inhibitors of PP1: fluorescence-based biochemical high throughput dose response assay to identify inhibitors of Protein Phosphatase 5 (PP5). [Related pubchem assays: 2034 (Summary (PP5 inhibitors)), 1987 (PP5 inhibitors in singlate), 2235 (PP1 inhibitors in singlate)]
[6] = target: Bcl-2-like protein 10 (Homo sapiens, UniProt Q9HD36); experiment: Concentration-response of Bcl-B inhibitors by biochemical FP with TR3 (AID 1243); type: functional
[7] = Luminescence Cell-Based Dose Response HTS to Identify Inhibitors of 5'UTR Stem-Loop Driven Prion Protein mRNA Translation in H4 Neuroglioblastoma Cells. [Related pubchem assays: 1827 (Project Summary), 1813 (Primary HTS)]; type: functional
[8] = luciferase reporter signal suppression in cells – H4 neuroglioma cells, luminescence, dose response (AID 1990); type: functional, cell-based
[9] = target: T2, Neuropeptide Y receptor type 1 (Homo sapiens, UniProt P25929); type: functional;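 note: HEK293 cells with a CNG channel challenged with NPY then isoproterenol; potency as antagonist that reverses NPY suppression of cAMP signal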
T2 sequence (P25929 whole entry): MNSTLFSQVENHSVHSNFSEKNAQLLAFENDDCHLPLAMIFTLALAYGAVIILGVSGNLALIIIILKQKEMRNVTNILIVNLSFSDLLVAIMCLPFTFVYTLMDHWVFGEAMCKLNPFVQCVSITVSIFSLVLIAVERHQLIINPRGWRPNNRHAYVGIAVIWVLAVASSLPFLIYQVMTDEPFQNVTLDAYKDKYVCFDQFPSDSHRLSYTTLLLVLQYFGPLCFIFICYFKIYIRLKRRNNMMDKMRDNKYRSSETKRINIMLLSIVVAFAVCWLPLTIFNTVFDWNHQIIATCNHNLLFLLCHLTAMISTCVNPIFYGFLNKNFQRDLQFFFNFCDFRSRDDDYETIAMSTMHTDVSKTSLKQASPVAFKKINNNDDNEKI

[10] = Trypanosoma cruzi growth suppression in host cells – NIH3T3 host cells, beta-gal luminescence, confirmation (AID 2044); type: functional, cell-based;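 note: intracellular parasites grown in NIH/3T3 mouse fibroblasts as host cells; luminescent beta-galactosidase reporter signal from transgenic T. cruzi replicating inside host cells; inhibitors lower the luminescence signal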
[11] = NIH3T3 cell viability loss – ATP luminescence, mouse fibroblasts, counter-screen, dose response (AID 2010); type: functional, cell-based;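 note: cells exposed to compound for about 90 hours before reading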
[12] = alpha-synuclein stem-loop luciferase translation blockers – H4 neuroglioma cells, luminescence, confirmation (AID 1988); type: functional, cell-based
[13] = target: T3, Neuropeptide Y receptor type 2 (Homo sapiens, UniProt P49146); type: functional, cell-based;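 note: HEK293 cells expressing the receptor and a CNG channel; stimulus was NPY near EC95 followed by isoproterenol to raise cAMP; antagonist potency measured as restoring cAMP signal that NPY suppresses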
T3 sequence (P49146 whole entry): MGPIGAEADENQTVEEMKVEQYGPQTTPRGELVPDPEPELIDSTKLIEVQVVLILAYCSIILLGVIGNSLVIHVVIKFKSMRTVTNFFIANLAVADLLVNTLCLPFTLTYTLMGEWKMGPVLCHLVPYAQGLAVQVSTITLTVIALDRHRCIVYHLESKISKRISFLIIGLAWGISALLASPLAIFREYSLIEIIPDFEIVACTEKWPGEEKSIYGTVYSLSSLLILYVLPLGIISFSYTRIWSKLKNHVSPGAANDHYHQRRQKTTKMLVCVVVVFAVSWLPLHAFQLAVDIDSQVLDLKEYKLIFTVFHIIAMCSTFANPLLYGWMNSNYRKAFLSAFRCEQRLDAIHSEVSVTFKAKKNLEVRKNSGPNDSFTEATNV

[14] = target: T4, Streptokinase A (Streptococcus pyogenes serotype M1, UniProt P10520); experiment: viability-normalized secreted streptokinase activity reduction – plasminogen activation absorbance, OD405, dose response (AID 1914); type: functional, Streptococcus pyogenes M1 GAS;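 note: secreted streptokinase activity via plasminogen activation per viability signal from cell pellet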
T4 sequence (P10520 whole entry): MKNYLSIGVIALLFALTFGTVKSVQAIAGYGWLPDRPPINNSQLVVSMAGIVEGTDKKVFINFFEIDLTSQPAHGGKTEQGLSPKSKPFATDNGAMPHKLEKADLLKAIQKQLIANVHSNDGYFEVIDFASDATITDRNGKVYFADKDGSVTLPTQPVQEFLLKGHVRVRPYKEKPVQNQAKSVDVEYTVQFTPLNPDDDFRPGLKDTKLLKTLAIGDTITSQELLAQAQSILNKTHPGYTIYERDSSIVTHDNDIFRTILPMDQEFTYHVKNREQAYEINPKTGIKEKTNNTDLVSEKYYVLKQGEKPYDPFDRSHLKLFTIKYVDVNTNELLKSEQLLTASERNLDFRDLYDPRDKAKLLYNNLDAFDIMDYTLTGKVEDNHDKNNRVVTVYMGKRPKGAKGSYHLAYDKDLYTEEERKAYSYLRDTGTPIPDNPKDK

[15] = test system: Streptococcus; experiment: Luminescence Microorganism-Based Dose Response Follow up to Identify Compounds Cytotoxic to Streptococcus. [Related pubchem assays: 1677 (Project Summary), 1915, 1914, 1902 (Retest at Dose), 1900 (Counter Screen), 1662 (Primary HTS)]; type: functional, organism-based
[16] = test system: Streptococcus; experiment: GAS UMAA2166 growth inhibition – luminescence, BacTiterGlo, counter-screen for streptokinase expression inhibitor project, dose response (AID 1915); type: functional, organism-based;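 note: potency for reduction of bacterial viability or growth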
[17] = test system: Streptococcus sp. 'group A'; experiment: Streptococcus pyogenes SK(-)GAS viability under kanamycin – luminescence, BacTiterGlo, confirmation, counter-screen for streptokinase expression inhibitor project, dose response (AID 1900); type: functional, organism-based
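Throughout, for AC50: cells exposed to compound for roughly 70 hours or longer before luminescence read.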

T1 sequence (P0DMV8 whole entry): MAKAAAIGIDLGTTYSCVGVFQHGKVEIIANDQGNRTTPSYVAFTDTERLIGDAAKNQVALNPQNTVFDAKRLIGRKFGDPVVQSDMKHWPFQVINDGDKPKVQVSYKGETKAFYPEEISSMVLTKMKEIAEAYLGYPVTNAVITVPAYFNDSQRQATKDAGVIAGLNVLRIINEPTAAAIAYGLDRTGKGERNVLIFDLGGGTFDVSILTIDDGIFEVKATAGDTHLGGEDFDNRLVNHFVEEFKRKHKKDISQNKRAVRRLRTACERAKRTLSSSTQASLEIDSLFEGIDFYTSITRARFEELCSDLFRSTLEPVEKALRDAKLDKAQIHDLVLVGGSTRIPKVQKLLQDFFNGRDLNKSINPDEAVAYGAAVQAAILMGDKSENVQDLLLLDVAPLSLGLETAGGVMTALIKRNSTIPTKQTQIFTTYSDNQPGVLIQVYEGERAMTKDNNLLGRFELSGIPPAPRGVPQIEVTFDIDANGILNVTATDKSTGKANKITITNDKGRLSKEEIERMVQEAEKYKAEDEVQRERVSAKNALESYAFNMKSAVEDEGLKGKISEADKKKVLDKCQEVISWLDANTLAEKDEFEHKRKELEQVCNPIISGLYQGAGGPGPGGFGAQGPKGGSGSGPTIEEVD
Sequence of Serine/threonine-protein phosphatase PP1-alpha catalytic subunit (P62136 whole entry): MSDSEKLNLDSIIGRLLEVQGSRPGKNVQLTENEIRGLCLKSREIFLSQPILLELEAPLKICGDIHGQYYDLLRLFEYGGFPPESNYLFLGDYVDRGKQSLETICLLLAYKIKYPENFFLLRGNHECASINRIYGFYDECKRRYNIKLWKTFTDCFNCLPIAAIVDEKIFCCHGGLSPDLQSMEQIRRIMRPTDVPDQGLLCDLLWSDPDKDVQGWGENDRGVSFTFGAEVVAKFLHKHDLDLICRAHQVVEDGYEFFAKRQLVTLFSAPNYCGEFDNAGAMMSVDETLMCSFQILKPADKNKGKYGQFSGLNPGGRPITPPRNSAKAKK
Sequence of Bcl-2-like protein 10 (Q9HD36 whole entry): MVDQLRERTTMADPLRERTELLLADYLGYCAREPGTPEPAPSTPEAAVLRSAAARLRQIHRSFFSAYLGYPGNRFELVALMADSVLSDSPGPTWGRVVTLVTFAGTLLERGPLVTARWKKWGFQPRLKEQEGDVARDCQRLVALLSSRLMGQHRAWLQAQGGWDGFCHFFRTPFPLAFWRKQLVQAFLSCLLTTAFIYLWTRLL
Sequence of Serine/threonine-protein phosphatase (Q9BPW0 whole entry): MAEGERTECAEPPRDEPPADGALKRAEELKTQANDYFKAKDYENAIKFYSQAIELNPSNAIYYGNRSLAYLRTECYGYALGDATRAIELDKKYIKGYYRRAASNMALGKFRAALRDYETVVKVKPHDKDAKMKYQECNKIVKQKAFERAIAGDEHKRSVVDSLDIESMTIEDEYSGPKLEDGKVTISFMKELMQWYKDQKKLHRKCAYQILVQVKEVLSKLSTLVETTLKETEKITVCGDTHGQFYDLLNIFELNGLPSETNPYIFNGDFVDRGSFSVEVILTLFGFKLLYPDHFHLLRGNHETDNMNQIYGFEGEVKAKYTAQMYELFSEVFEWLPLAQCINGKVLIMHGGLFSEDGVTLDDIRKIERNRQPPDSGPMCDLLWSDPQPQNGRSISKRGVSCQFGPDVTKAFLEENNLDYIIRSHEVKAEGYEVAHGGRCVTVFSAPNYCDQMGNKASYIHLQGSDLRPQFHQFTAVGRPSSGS

For `CCCc1cc(SCC(=O)Nc2c(C)n(C)n(-c3ccccc3)c2=O)n2c(nc3ccccc32)c1C#N`, the AC50 [1] was > 195 µM (inactive), the IC50 [2] was > 100 µM (not active) and the IC50 [3] was > 100 µM (not active).
For `O=C(O)c1cc(-c2ccc(Cl)cc2)n(-c2cccc(Cl)c2)n1`, the IC50 [4] was 8.1 µM (active) and the IC50 [5] was > 67 µM (not active).
With `C=CCN1C(=O)/C(=C\c2cccn2-c2cccc([N+](=O)[O-])c2)C(=O)NC1=S` the EC50 [6] was 5.36 µM (active).
For `CCOc1ccc(-n2cc(C(=O)Nc3cccc(Cl)c3)c3cc(OC)c(OC)cc3c2=O)cc1`, the EC50 [7] was > 120 µM (not active), the EC50 [8] was 21.5 µM (active) and the IC50 [9] was > 35 µM (not active). For the same compound, the EC50 [10] was 3.7 µM (active), the EC50 [11] was > 60 µM (not active) and the EC50 [12] was > 120 µM (not active). The IC50 [13] was > 35 µM (not active).
In the case of `Cc1ccc(/C=C/c2ccc(=O)n(Cc3ccccc3Cl)n2)cc1`, the EC50 [14] is reported as 10.2 µM (active), the EC50 [15] is reported as 10.7 µM (active) and the EC50 [16] is reported as > 50 µM (not active). For the same compound, the EC50 [17] was 6.69 µM (active).
